Measured values published in US20260207600A1, “METHODS OF TREATMENT WITH MYOSIN MODULATOR” (MYOKARDIA, INC., priority 2019, published 2026).

System: participants with symptomatic oHCM
Assay: EXPLORER-HCM Phase 3 double blind, randomized, placebo controlled study
Format: in vivo, human
Text: A subset of participants consented to participate in a CMR substudy at selected sites. Randomization was stratified according to NYHA functional classification (II or III), current treatment with β-blocker (yes or no), planned type of ergometer used during the study (treadmill or exercise bicycle), and consent for the CMR substudy (yes or no).
The study included 3 periods carried out according to the following design:
1) Screening period (Day −35 to Day −1): Participants will undergo a variety of general, cardiopulmonary, laboratory, symptom, and PRO assessments over 1 to 2 days in order to assess eligibility. Key Screening tests include electrocardiogram (ECG); transthoracic echocardiography (TTE) conducted at rest, with Valsalva maneuver, and post-exercise; as well as cardiopulmonary exercise testing (CPET). The following screening assessments may be repeated, as long as within the 35-days screening window: blood tests, ECG, and/or TTE. Repeat assessments are allowed if central core labs require a repeat submission due to quality and in order to better assess inclusion/exclusion values. Participants who screen fail may be considered for rescreening based on the investigator's discretion, taking into consideration the reason(s) for screen fail. One attempt at rescreening will be allowed, and all procedures must be repeated.
2) Double-blind treatment period (Day 1 [randomization] to Week 30/end of treatment [EOT]): The double-blind treatment period will include a two-step dose titration scheme designed to achieve safe and effective dosing for each participant based on their own response parameters. […] Subsequently, assessments including ECG, PK (trough plasma concentrations), and TTE will be performed at each of 7 study visits, beginning at Week 4, and read by core laboratories. At Week 8 and Week 14, the dose may be increased, decreased, or remain unchanged based upon results of Week 6 and Week 12 assessments, respectively, and based primarily on measurements of provoked left ventricular outflow tract (LVOT) gradient and bounded by a target plasma concentration (PK) range and clinical tolerability (LVEF). At Week 8, the dose may be increased to a maximum daily dose of 10 mg (ie, increase from 5 mg QD to 10 mg QD), and at Week 14 to a maximum daily dose of 15 mg (ie, increase from 10 mg QD to 15 mg QD). Dose increases are designed to be step wise and are not allowed to skip doses (eg, from 5 mg to 15 mg).
At Week 30/EOT, participants will complete CPET and post-exercise TTE. For any participants permanently discontinuing treatment prior to Week 30, an early termination (ET) visit should be conducted as soon as possible, including CPET and post-exercise TTE. Participants with ET will also be encouraged to complete all remaining study visits and assessments, including the Week 30 visit.
3) Posttreatment follow-up period (Week 30/EOT to Week 38/end of study [EOS]): When double-blind treatment ends at Week 30, participants will be contacted by phone at Week 34 and return to the site at Week 38 for an EOS visit. At the EOS visit, specified assessments will be repeated. This posttreatment follow-up period applies only to participants who are receiving study drug after Week 22.
To maintain safety throughout the double-blind treatment period, a clinic visit will occur every 2 to 4 weeks, beginning at Week 4 for an initial evaluation of clinical tolerability and safety. Clinic visits will include but are not limited to clinical evaluation (symptoms, PRO evaluations, adverse event [AE]/serious adverse event [SAE] assessment), ECGs, PK sample, TTEs, and laboratory assessments. Results of TTE performed by study site sonographers at each scheduled visit following randomization should be kept blinded to the investigator and other study site personnel. […]

[1] = Mavacamten arm (n = 123), baseline to Week 30
[2] = Mavacamten arm, defined as NYHA Class I and all LVOT gradients <30 mmHg
[3] = change from baseline to Week 30, p <0.0001

## CC(C)n1c(=O)cc(N[C@@H](C)c2ccccc2)[nH]c1=O [mavacamten, (S)-3-Isopropyl-6-((1-phenylethyl)amino)pyrimidine-2, 4(1H,3H)-dione]
7 subjects, placebo 10.2%
  subjects with severe TEAEs: 5.7%
Mavacamten (n = 123)
  Response Type 1 (pVO2 ≥1.5 ml/kg/min and NYHA improved ≥1), n (%): 41 (33.3) n (%)
  Response Type 2 (pVO2 ≥3.0 ml/kg/min and no worsening NYHA), n (%): 29 (23.6) n (%)
  pVO2 ≥3.0 and NYHA ≥1, n (%): 25 (20.3) n (%)
Mavacamten (n = 123), Week 30
  Met Composite Functional Response, either type, n (%): 45 (36.6) n (%)
Mavacamten arm
  Absence of MR (mitral regurgitation), (%): (9.0) %
  Absence of MR (mitral regurgitation), n/assessible: 10/111
  Absence of SAM (systolic anterior motion of mitral valve), (%): (80.9) %
  Absence of SAM (systolic anterior motion of mitral valve), n/assessible: 76/94
  participants with a temporary discontinuation associated with reduced ejection fraction: 3
[1]
  HCMSQ-SoB score, change from baseline, mean (SD): −2.82 (2.7)
  KCCQ-CSS, change from baseline, mean (SD): 13.6 (14.4)
  KCCQ-OSS, change from baseline, mean (SD): 14.87 (15.8)
  KCCQ-total symptom score, change from baseline, mean (SD): 12.44 (15.0)
  NYHA improved ≥1 Class, n (%): 80 (65) n (%)
  Post-exercise LVOT peak gradient, change from baseline, mean (SD): −47.2 (40.3) mmHg
  pVO2, change from baseline, mean (SD): 1.4 (3.1) mL/kg/min
Mavacamten arm, Week 30
  Post-exercise LVOT peak gradient < 30 mmHg, (%): (56.6) %
  Post-exercise LVOT peak gradient < 30 mmHg, n/assessible: 64/113
  Post-exercise LVOT peak gradient < 50 mmHg, (%): (74.3) %
  Post-exercise LVOT peak gradient < 50 mmHg, n/assessible: 75/101
[2]
  Complete Response, (%): (27.4) %
  Complete Response, n/assessible: 32/117
Mavacamten vs Placebo
  Met Composite Functional Response, either type: 19.4
  Response Type 1: 19.3
  Response Type 2: 12.6
  pVO2 ≥3.0 and NYHA ≥1: 12.5
NYHA Class I and all LVOT gradients <30 mmHg, p <0.0001
  Complete Response, Mava vs Placebo Difference (95% CI): 26.6 (18.3, 34.8)
Week 30, 95% CI (0.169, 0.241), p <0.0001
  NT-proBNP Mava vs Placebo Model Est RR: 0.202
Week 30, 95% CI (0.500, 0.693), p <0.0001
  hs-cTnI Mava vs Placebo Model Est RR: 0.589
Week 30, p <0.0001
  Post-exercise LVOT peak gradient < 30 mmHg, Mava vs Placebo Difference (95% CI): 49.6 (39.3, 59.8)
  Post-exercise LVOT peak gradient < 50 mmHg, Mava vs Placebo Difference (95% CI): 53.5 (42.0. 65.0)
Baseline to Week 30, p <0.0001
  NYHA improved ≥1 Class, Mavacamten vs Placebo Difference (95% CI): 33.8 (22.1, 45.4) <0.0001
Change from baseline to Week 30, p 0.0002
  KCCQ-total symptom score, Mavacamten vs Placebo Difference (95% CI): 7.60 (3.68, 11.52) 0.0002
Change from baseline to Week 30, p 0.0006
  pVO2, Mavacamten vs Placebo Difference (95% CI): 1.35 (0.580, 2.116) 0.0006 mL/kg/min
[3]
  HCMSQ-SoB score, Mavacamten vs Placebo Difference (95% CI): −1.8 (−2.402, −1.196) <0.0001
  KCCQ-CSS, Mavacamten vs Placebo Difference (95% CI): 9.1 (5.46, 12.66) <0.0001
  KCCQ-OSS, Mavacamten vs Placebo Difference (95% CI): 9.12 (5.46, 12.80) <0.0001
  Post-exercise LVOT peak gradient, Mavacamten vs Placebo Difference (95% CI): −35.5 (−43.1, −27.9) <0.0001 mmHg
Doses ranging from 2.5 to 15 mg
  Tolerability: well tolerated
intent-to-treat, 45 of the 123 patients
  patients meeting the primary efficacy endpoint (composite functional response): 36.6%
On mavacamten (atrial fibrillation, syncope)
  permanent treatment discontinuations due to adverse events: 2
P 0.0006
  Absence of MR, Mava vs Placebo Difference (95% CI): 9.0 (3.7, 14.3)
P <0.0001
  Absence of SAM, Mava vs Placebo Difference (95% CI): 46.9 (34.5, 59.2)
Patients on mavacamten (all at a 5 mg dose)
  temporary discontinuations: 8
Placebo 1%
  patients achieving a complete response (NYHA 1 and all LVOT gradients below 30 mmHg): 27%
Placebo 4
  patients with cardiac SAEs: 4
Placebo 7%
  patients achieving a post-exercise LVOT peak gradient below 30 mmHg: 57%
Placebo 20
  number of SAEs: 12
Placebo 21%
  patients achieving NYHA class I status: 65%
Through week 30, 10 subjects
  subjects experiencing SAEs: 8.1%
